Results as given in patent publication US20240124417A1, “COMPOUNDS USEFUL AS IMMUNOMODULATORS” (Bristol-Myers Squibb Company, priority 2019, published 2024).
pIC50: −log10 of the molar value.

Biological target: T1, PD-1/PD-L1 (Homo sapiens, UniProt Q9NZQ7)
T1 construct: TVMV protease site linker (C); made in house; host or cells: HEK293T cells
Assay: PD-1/PD-L1 Homogenous Time-Resolved Fluorescence (HTRF) binding assay
Conditions: PD-L1-His 10 nM, PD-1-Ig 20 nM
How it was run: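 Time-resolved FRET read-out using Eu-cryptate anti-Ig (1 nM final) and APC anti-His (20 nM final). Tagged extracellular domains were used in BSA/Tween-20-supplemented dPBS, with compound pre-incubated 15 min with PD-L1-His (10 nM) before PD-1-Ig (20 nM) was added for 15 min. Other human pairs: PD-L2-His 5 nM with PD-1-Ig 20 nM; PD-L1-Ig 10 nM with CD80-His 100 nM.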

T1 sequence (Q9NZQ7 18-239): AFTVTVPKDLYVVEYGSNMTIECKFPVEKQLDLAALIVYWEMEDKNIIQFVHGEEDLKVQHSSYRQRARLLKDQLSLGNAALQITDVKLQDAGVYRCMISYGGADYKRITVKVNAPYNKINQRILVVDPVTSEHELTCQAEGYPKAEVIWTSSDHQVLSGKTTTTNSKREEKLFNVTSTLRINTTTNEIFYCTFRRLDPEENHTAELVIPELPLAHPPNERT

Row | SMILES | pIC50
1 | Cc1c(COc2cc(OCc3cncc(C#N)c3)c(CN3CCc4cn[nH]c4C3)cc2Cl)cccc1-c1cccc(OCCCN2CC[C@@H](O)C2)c1C [Example 2569, (R)-5-((4-chloro-5-((3′-(3-(3-hydroxypyrrolidin-1-yl)propoxy)-2,2′-dimethyl-[1,1′-biphenyl]-3-yl)methoxy)-2-((1,4,5,7-tetrahydro-6H-pyrazolo[3,4-c]pyridin-6-yl)methyl)phenoxy)methyl)nicotinonitrile] | 8.26
2 | Cc1n[nH]c(C)c1CNCc1cc(Cl)c(OCc2cccc(-c3cccc(OCCCN4CC[C@@H](O)C4)c3C)c2C)cc1OCc1cncc(C#N)c1 [Example 2570, (R)-5-((4-chloro-2-((((3,5-dimethyl-1H-pyrazol-4-yl)methyl)amino)methyl)-5-((3′-(3-(3-hydroxypyrrolidin-1-yl)propoxy)-2,2′-dimethyl-[1,1′-biphenyl]-3-yl)methoxy)phenoxy)methyl)nicotinonitrile] | 8.82
3 | CCc1nc(CN(CCOC)Cc2cc(Cl)c(OCc3cccc(-c4cccc(OCCCN5CC[C@@H](O)C5)c4C)c3C)cc2OCc2cncc(C#N)c2)[nH]c1CC [Example 2571, (R)-5-((4-chloro-2-((((4,5-diethyl-1H-imidazol-2-yl)methyl)(2-methoxyethyl)amino)methyl)-5-((3′-(3-(3-hydroxypyrrolidin-1-yl)propoxy)-2,2′-dimethyl-[1,1′-biphenyl]-3-yl)methoxy)phenoxy)methyl)nicotinonitrile] | 8.42
4 | Cc1n[nH]c(C)c1CN(C)Cc1cc(Cl)c(OCc2cccc(-c3cccc(OCCCN4CC[C@@H](O)C4)c3C)c2C)cc1OCc1cncc(C#N)c1 [Example 2572, (R)-5-((4-chloro-2-((((3,5-dimethyl-1H-pyrazol-4-yl)methyl)(methyl)amino)methyl)-5-((3′-(3-(3-hydroxypyrrolidin-1-yl)propoxy)-2,2′-dimethyl-[1,1′-biphenyl]-3-yl)methoxy)phenoxy)methyl)nicotinonitrile] | 8.48
5 | Cc1cc(CNCc2cc(Cl)c(OCc3cccc(-c4cccc(OCC5CCCN(C)C5)c4Cl)c3C)cc2OCc2cncc(C#N)c2)no1 (stereo not drawn) [Example 2575, 5-((4-chloro-5-((2′-chloro-2-methyl-3′-((1-methylpiperidin-3-yl)methoxy)-[1,1′-biphenyl]-3-yl)methoxy)-2-((((5-methylisoxazol-3-yl)methyl)amino)methyl)phenoxy)methyl)nicotinonitrile] | 8.55
6 | Cc1c(COc2cc(OCc3cncc(C#N)c3)c(CNCc3cncs3)cc2Cl)cccc1-c1cccc(OCC2CCCN(C)C2)c1Cl (stereo not drawn) [Example 2576, 5-((4-chloro-5-((2′-chloro-2-methyl-3′-((1-methylpiperidin-3-yl)methoxy)-[1,1′-biphenyl]-3-yl)methoxy)-2-(((thiazol-5-ylmethyl)amino)methyl)phenoxy)methyl)nicotinonitrile] | 8.60
7 | Cc1c(COc2cc(OCc3cncc(C#N)c3)c(CNCc3ncc[nH]3)cc2Cl)cccc1-c1cccc(OCC2CCCN(C)C2)c1Cl (stereo not drawn) [Example 2577, 5-((2-((((1H-imidazol-2-yl)methyl)amino)methyl)-4-chloro-5-((2′-chloro-2-methyl-3′-((1-methylpiperidin-3-yl)methoxy)-[1,1′-biphenyl]-3-yl)methoxy)phenoxy)methyl)nicotinonitrile] | 8.80
8 | Cc1c(COc2cc(OCc3cncc(C#N)c3)c(CNCc3ncn[nH]3)cc2Cl)cccc1-c1cccc(OCC2CCCN(C)C2)c1Cl (stereo not drawn) [Example 2578, 5-((2-((((1H-1,2,4-triazol-5-yl)methyl)amino)methyl)-4-chloro-5-((2′-chloro-2-methyl-3′-((1-methylpiperidin-3-yl)methoxy)-[1,1′-biphenyl]-3-yl)methoxy)phenoxy)methyl)nicotinonitrile] | 8.72
9 | Cc1c(COc2cc(OCc3cncc(C#N)c3)c(CNCCc3ncn[nH]3)cc2Cl)cccc1-c1cccc(OCC2CCCN(C)C2)c1Cl (stereo not drawn) [Example 2579, 5-((2-(((2-(1H-1,2,4-triazol-5-yl)ethyl)amino)methyl)-4-chloro-5-((2′-chloro-2-methyl-3′-((1-methylpiperidin-3-yl)methoxy)-[1,1′-biphenyl]-3-yl)methoxy)phenoxy)methyl)nicotinonitrile] | 9.30

Results, then the compound that gave them:

Row | pIC50 | SMILES
10 | 9.70 | Cc1c(COc2cc(OCc3cncc(C#N)c3)c(CNCCc3c[nH]cn3)cc2Cl)cccc1-c1cccc(OCC2CCCN(C)C2)c1Cl (stereo not drawn) [Example 2580, 5-((2-(((2-(1H-imidazol-4-yl)ethyl)amino)methyl)-4-chloro-5-((2′-chloro-2-methyl-3′-((1-methylpiperidin-3-yl)methoxy)-[1,1′-biphenyl]-3-yl)methoxy)phenoxy)methyl)nicotinonitrile]
11 | 8.47 | Cc1c(COc2cc(OCc3cncc(C#N)c3)c(CN(C)Cc3cn[nH]c3)cc2Cl)cccc1-c1cccc(OCC2CCCN(C)C2)c1Cl (stereo not drawn) [Example 2581, 5-((2-((((1H-pyrazol-4-yl)methyl)(methyl)amino)methyl)-4-chloro-5-((2′-chloro-2-methyl-3′-((1-methylpiperidin-3-yl)methoxy)-[1,1′-biphenyl]-3-yl)methoxy)phenoxy)methyl)nicotinonitrile]
12 | 8.43 | Cc1c(COc2cc(OCc3cncc(C#N)c3)c(CNCCc3cc[nH]n3)cc2Cl)cccc1-c1cccc(OCC2CCCN(C)C2)c1Cl (stereo not drawn) [Example 2582, 5-((2-(((2-(1H-pyrazol-3-yl)ethyl)amino)methyl)-4-chloro-5-((2′-chloro-2-methyl-3′-((1-methylpiperidin-3-yl)methoxy)-[1,1′-biphenyl]-3-yl)methoxy)phenoxy)methyl)nicotinonitrile]
13 | 8.64 | Cc1c(COc2cc(OCc3cncc(C#N)c3)c(CN3CCc4[nH]cnc4C3)cc2Cl)cccc1-c1cccc(OCC2CCCN(C)C2)c1Cl (stereo not drawn) [Example 2583, 5-((4-chloro-5-((2′-chloro-2-methyl-3′-((1-methylpiperidin-3-yl)methoxy)-[1,1′-biphenyl]-3-yl)methoxy)-2-((1,4,6,7-tetrahydro-5H-imidazo[4,5-c]pyridin-5-yl)methyl)phenoxy)methyl)nicotinonitrile]
14 | 8.59 | Cc1c(COc2cc(OCc3cncc(C#N)c3)c(CNCc3cncnc3)cc2Cl)cccc1-c1cccc(OCC2CCCN(C)C2)c1Cl (stereo not drawn) [Example 2584, 5-((4-chloro-5-((2′-chloro-2-methyl-3′-((1-methylpiperidin-3-yl)methoxy)-[1,1′-biphenyl]-3-yl)methoxy)-2-(((pyrimidin-5-ylmethyl)amino)methyl)phenoxy)methyl)nicotinonitrile]
15 | 8.55 | Cc1c(COc2cc(OCc3cncc(C#N)c3)c(CNCc3nccs3)cc2Cl)cccc1-c1cccc(OCC2CCCN(C)C2)c1Cl (stereo not drawn) [Example 2585, 5-((4-chloro-5-((2′-chloro-2-methyl-3′-((1-methylpiperidin-3-yl)methoxy)-[1,1′-biphenyl]-3-yl)methoxy)-2-(((thiazol-2-ylmethyl)amino)methyl)phenoxy)methyl)nicotinonitrile]
16 | 9.15 | Cc1c(COc2cc(OCc3cncc(C#N)c3)c(CNCc3csc(N)n3)cc2Cl)cccc1-c1cccc(OCC2CCCN(C)C2)c1Cl (stereo not drawn) [Example 2586, 5-((2-((((2-aminothiazol-4-yl)methyl)amino)methyl)-4-chloro-5-((2′-chloro-2-methyl-3′-((1-methylpiperidin-3-yl)methoxy)-[1,1′-biphenyl]-3-yl)methoxy)phenoxy)methyl)nicotinonitrile]
17 | 9.05 | Cc1c(COc2cc(OCc3cncc(C#N)c3)c(CN3CCc4[nH]ncc4C3)cc2Cl)cccc1-c1cccc(OCC2CCCN(C)C2)c1Cl (stereo not drawn) [Example 2587, 5-((4-chloro-5-((2′-chloro-2-methyl-3′-((1-methylpiperidin-3-yl)methoxy)-[1,1′-biphenyl]-3-yl)methoxy)-2-((1,4,6,7-tetrahydro-5H-pyrazolo[4,3-c]pyridin-5-yl)methyl)phenoxy)methyl)nicotinonitrile]
18 | 8.70 | Cc1c(COc2cc(OCc3cncc(C#N)c3)c(CNCc3cc[nH]n3)cc2Cl)cccc1-c1cccc(OCC2CCCN(C)C2)c1Cl (stereo not drawn) [Example 2588, 5-((2-((((1H-pyrazol-3-yl)methyl)amino)methyl)-4-chloro-5-((2′-chloro-2-methyl-3′-((1-methylpiperidin-3-yl)methoxy)-[1,1′-biphenyl]-3-yl)methoxy)phenoxy)methyl)nicotinonitrile]
19 | 8.10 | Cc1c(COc2cc(OCc3cncc(C#N)c3)c(CN3CCc4cn[nH]c4C3)cc2Cl)cccc1-c1cccc(OCC2CCCN(C)C2)c1Cl (stereo not drawn) [Example 2589, 5-((4-chloro-5-((2′-chloro-2-methyl-3′-((1-methylpiperidin-3-yl)methoxy)-[1,1′-biphenyl]-3-yl)methoxy)-2-((1,4,5,7-tetrahydro-6H-pyrazolo[3,4-c]pyridin-6-yl)methyl)phenoxy)methyl)nicotinonitrile]
20 | 8.70 | Cc1c(COc2cc(OCc3cncc(C#N)c3)c(CNCc3ncco3)cc2Cl)cccc1-c1cccc(OCC2CCCN(C)C2)c1Cl (stereo not drawn) [Example 2590, 5-((4-chloro-5-((2′-chloro-2-methyl-3′-((1-methylpiperidin-3-yl)methoxy)-[1,1′-biphenyl]-3-yl)methoxy)-2-(((oxazol-2-ylmethyl)amino)methyl)phenoxy)methyl)nicotinonitrile]
21 | 8.72 | Cc1c(COc2cc(OCc3cncc(C#N)c3)c(CNCc3cnco3)cc2Cl)cccc1-c1cccc(OCC2CCCN(C)C2)c1Cl (stereo not drawn) [Example 2591, 5-((4-chloro-5-((2′-chloro-2-methyl-3′-((1-methylpiperidin-3-yl)methoxy)-[1,1′-biphenyl]-3-yl)methoxy)-2-(((oxazol-5-ylmethyl)amino)methyl)phenoxy)methyl)nicotinonitrile]
